Data: patent publication US9695155B2, “Herbicidal substituted pyrimidinyloxy benzene compounds” (E. I. DU PONT DE NEMOURS AND COMPANY, priority 2013, dated 2017)

Legend:
blackgrass [1] = test: Test D preemergence; type: in vivo, Alopecurus myosuroides
How it was run: (§1)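 Visual rating vs untreated controls, 0 = no effect, 100 = complete control, taken 7–21 d after treatment. Pre: silt loam soil. Post: potting medium, plants 2–18 cm, 1–4 leaf. Formulation: non-phytotoxic solvent mix + surfactant.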

Italian ryegrass = test: Test D preemergence; type: in vivo, Lolium multiflorum
How it was run: as §1

lambsquarters = test: Test D preemergence; type: in vivo, Chenopodium album
How it was run: as §1

oilseed rape = test: Test D preemergence; type: in vivo, Brassica napus
How it was run: as §1

pigweed [2] = test: Test D preemergence; type: in vivo, Amaranthus retroflexus
How it was run: as §1

speedwell = test: Test D preemergence; type: in vivo, Veronica persica
How it was run: as §1

blackgrass [3] = test: Test D postemergence; type: in vivo, Alopecurus myosuroides; settings: Postemergence, scale 0 to 100 (0 no effect, 100 complete control)
How it was run: as §1

canarygrass = test: Test D postemergence; type: in vivo, Phalaris minor
How it was run: as §1

chickweed = test: Test D postemergence; type: in vivo, Stellaria media
How it was run: as §1

pigweed [4] = test: Test D postemergence; type: in vivo, Amaranthus retroflexus
How it was run: as §1

wild oat = test: Test D postemergence; type: in vivo, Avena fatua
How it was run: as §1

wild radish = test: Test D postemergence; type: in vivo, Raphanus raphanistrum
How it was run: as §1

[5] = 31 g ai/ha, scale 0 (no effect) to 100 (complete control)
[6] = 62 g ai/ha, scale 0 to 100 (0 no effect, 100 complete control)
[7] = 125 g ai/ha, scale 0 to 100 (0 no effect, 100 complete control)
[8] = 250 g ai/ha, scale 0 to 100 (0 no effect, 100 complete control)

Fc1cccc(Oc2ncc(Cl)cn2)c1-n1cc(Br)cn1 [Compound 178, 2-[2-(4-bromo-1H-pyrazol-1-yl)-3-fluorophenoxy]-5-chloropyrimidine]
35%: pest or weed control at 62 g/ha (blackgrass [1]; Alopecurus myosuroides, pre-emergence, 62 g ai/ha, scale 0-100, read-out: Plant response rating, Blackgrass) | pest or weed control at 125 g/ha (canarygrass; Phalaris minor, post-emergence, 125 g ai/ha, scale 0 to 100 (0 no effect, 100 complete control), read-out: Plant response rating, Canarygrass)
10%: pest or weed control at 31 g/ha (blackgrass [1]; Alopecurus myosuroides, pre-emergence, 31 g ai/ha, scale 0-100, read-out: Plant response rating, Blackgrass) | pest or weed control at 31 g/ha (blackgrass [3]; Alopecurus myosuroides, post-emergence, 31 g ai/ha, read-out: Plant response rating, Blackgrass)
60%: pest or weed control at 31 g/ha (chickweed; Stellaria media, post-emergence, 31 g ai/ha, scale 0 to 100 (0 no effect, 100 complete control), read-out: Plant response rating, Chickweed) | pest or weed control at 16 g/ha (wild radish; Raphanus raphanistrum, post-emergence, 16 g ai/ha, scale 0-100, read-out: Plant response rating, Radish, Wild)
85%: pest or weed control at 125 g/ha (blackgrass [1]; Alopecurus myosuroides, pre-emergence, 125 g ai/ha, scale 0-100, read-out: Plant response rating, Blackgrass) | pest or weed control at 125 g/ha (lambsquarters; Chenopodium album, pre-emergence, 125 g ai/ha, scale 0-100, read-out: Plant response rating, Lambsquarters) | pest or weed control at 62 g/ha (pigweed [4]; Amaranthus retroflexus, post-emergence, 62 g ai/ha, scale 0 to 100 (0 no effect, 100 complete control), read-out: Plant response rating, Pigweed)
70%: pest or weed control at 31 g/ha (lambsquarters; Chenopodium album, pre-emergence, 31 g ai/ha, scale 0-100, read-out: Plant response rating, Lambsquarters) | pest or weed control at 62 g/ha (wild radish; Raphanus raphanistrum, post-emergence, 62 g ai/ha, scale 0 to 100 (0 no effect, 100 complete control), read-out: Plant response rating, Radish, Wild)
65%: plant injury at 16 g/ha (oilseed rape; Brassica napus, pre-emergence, 16 g ai/ha, scale 0 (no effect) to 100 (complete control), read-out: Plant response rating, Oilseed Rape) | pest or weed control at 62 g/ha (chickweed; Stellaria media, post-emergence, 62 g ai/ha, scale 0 to 100 (0 no effect, 100 complete control), read-out: Plant response rating, Chickweed) | pest or weed control at 31 g/ha (wild radish; Raphanus raphanistrum, post-emergence, 31 g ai/ha, scale 0 to 100 (0 no effect, 100 complete control), read-out: Plant response rating, Radish, Wild)
20%: pest or weed control at 125 g/ha (Italian ryegrass; Lolium multiflorum, pre-emergence, 125 g ai/ha, scale 0-100, read-out: Plant response rating, Ryegrass, Italian) | pest or weed control at 16 g/ha (lambsquarters; Chenopodium album, pre-emergence, 16 g ai/ha, scale 0 (no effect) to 100 (complete control), read-out: Plant response rating, Lambsquarters) | pest or weed control at 62 g/ha (canarygrass; Phalaris minor, post-emergence, 62 g ai/ha, scale 0 to 100 (0 no effect, 100 complete control), read-out: Plant response rating, Canarygrass) | pest or weed control at 16 g/ha (wild oat; Avena fatua, post-emergence, 16 g ai/ha, scale 0-100, read-out: Plant response rating, Oat, Wild)
5%: pest or weed control at 16 g/ha (blackgrass [1]; Alopecurus myosuroides, pre-emergence, 16 g ai/ha, scale 0 (no effect) to 100 (complete control), read-out: Plant response rating, Blackgrass) | pest or weed control at 16 g/ha (blackgrass [3]; Alopecurus myosuroides, post-emergence, 16 g ai/ha, read-out: Plant response rating, Blackgrass) | pest or weed control at 16 g/ha (canarygrass; Phalaris minor, post-emergence, 16 g ai/ha, scale 0-100, read-out: Plant response rating, Canarygrass)
100%: plant injury at 125 g/ha (oilseed rape; Brassica napus, pre-emergence, 125 g ai/ha, scale 0-100, read-out: Plant response rating, Oilseed Rape) | pest or weed control at 31 g/ha (pigweed [2]; Amaranthus retroflexus, pre-emergence, 31 g ai/ha, scale 0 (no effect) to 100 (complete control), read-out: Plant response rating, Pigweed) | pest or weed control at 62 g/ha (pigweed [2]; Amaranthus retroflexus, pre-emergence, 62 g ai/ha, scale 0-100, read-out: Plant response rating, Pigweed) | pest or weed control at 125 g/ha (pigweed [2]; Amaranthus retroflexus, pre-emergence, 125 g ai/ha, scale 0-100, read-out: Plant response rating, Pigweed) | pest or weed control at 16 g/ha (speedwell; Veronica persica, pre-emergence, 16 g ai/ha, scale 0 (no effect) to 100 (complete control), read-out: Plant response rating, Speedwell) | pest or weed control at 31 g/ha (speedwell; Veronica persica, pre-emergence, 31 g ai/ha, scale 0 (no effect) to 100 (complete control), read-out: Plant response rating, Speedwell) | pest or weed control at 62 g/ha (speedwell; Veronica persica, pre-emergence, 62 g ai/ha, scale 0-100, read-out: Plant response rating, Speedwell) | pest or weed control at 125 g/ha (speedwell; Veronica persica, pre-emergence, 125 g ai/ha, scale 0-100, read-out: Plant response rating, Speedwell)
0%: pest or weed control at 16 g/ha (Italian ryegrass; Lolium multiflorum, pre-emergence, 16 g ai/ha, scale 0 (no effect) to 100 (complete control), read-out: Plant response rating, Ryegrass, Italian) | pest or weed control at 31 g/ha (Italian ryegrass; Lolium multiflorum, pre-emergence, 31 g ai/ha, scale 0 (no effect) to 100 (complete control), read-out: Plant response rating, Ryegrass, Italian)
75%: plant injury at 31 g/ha (oilseed rape; Brassica napus, pre-emergence, 31 g ai/ha, scale 0-100, read-out: Plant response rating, Oilseed Rape) | pest or weed control at 16 g/ha (pigweed [2]; Amaranthus retroflexus, pre-emergence, 16 g ai/ha, scale 0 (no effect) to 100 (complete control), read-out: Plant response rating, Pigweed) | pest or weed control at 125 g/ha (chickweed; Stellaria media, post-emergence, 125 g ai/ha, scale 0 to 100 (0 no effect, 100 complete control), read-out: Plant response rating, Chickweed) | pest or weed control at 16 g/ha (pigweed [4]; Amaranthus retroflexus, post-emergence, 16 g ai/ha, scale 0-100, read-out: Plant response rating, Pigweed)
25%: pest or weed control at 62 g/ha (blackgrass [3]; Alopecurus myosuroides, post-emergence, 62 g ai/ha, read-out: Plant response rating, Blackgrass) | pest or weed control at 31 g/ha (wild oat; Avena fatua, post-emergence, 31 g ai/ha, scale 0 to 100 (0 no effect, 100 complete control), read-out: Plant response rating, Oat, Wild) | pest or weed control at 62 g/ha (wild oat; Avena fatua, post-emergence, 62 g ai/ha, scale 0 to 100 (0 no effect, 100 complete control), read-out: Plant response rating, Oat, Wild) | pest or weed control at 125 g/ha (wild oat; Avena fatua, post-emergence, 125 g ai/ha, scale 0 to 100 (0 no effect, 100 complete control), read-out: Plant response rating, Oat, Wild)
15%: pest or weed control at 62 g/ha (Italian ryegrass; Lolium multiflorum, pre-emergence, 62 g ai/ha, scale 0-100, read-out: Plant response rating, Ryegrass, Italian) | pest or weed control at 31 g/ha (canarygrass; Phalaris minor, post-emergence, 31 g ai/ha, scale 0 to 100 (0 no effect, 100 complete control), read-out: Plant response rating, Canarygrass)
90%: pest or weed control at 125 g/ha (pigweed [4]; Amaranthus retroflexus, post-emergence, 125 g ai/ha, scale 0 to 100 (0 no effect, 100 complete control), read-out: Plant response rating, Pigweed)
55%: pest or weed control at 16 g/ha (chickweed; Stellaria media, post-emergence, 16 g ai/ha, scale 0-100, read-out: Plant response rating, Chickweed)
80%: pest or weed control at 62 g/ha (lambsquarters; Chenopodium album, pre-emergence, 62 g ai/ha, scale 0-100, read-out: Plant response rating, Lambsquarters) | pest or weed control at 31 g/ha (pigweed [4]; Amaranthus retroflexus, post-emergence, 31 g ai/ha, scale 0 to 100 (0 no effect, 100 complete control), read-out: Plant response rating, Pigweed) | pest or weed control at 125 g/ha (wild radish; Raphanus raphanistrum, post-emergence, 125 g ai/ha, scale 0 to 100 (0 no effect, 100 complete control), read-out: Plant response rating, Radish, Wild)

N#Cc1cccc(Oc2ncc(Cl)cn2)c1-n1cc(-n2ccc(C(F)(F)F)n2)cn1 [Compound 284]
80: Plant response rating, Chickweed (chickweed; 31 g ai/ha, scale 0-100)
30: Plant response rating, Ryegrass, Italian (Italian ryegrass; 250 g ai/ha, scale 0-100) | Plant response rating, Lambsquarters (lambsquarters; [5]) | Plant response rating, Blackgrass (blackgrass [3]; 125 g ai/ha)
85: Plant response rating, Chickweed (chickweed; [6])
10: Plant response rating, Blackgrass (blackgrass [1]; 62 g ai/ha, scale 0-100) | Plant response rating, Oilseed Rape (oilseed rape; 125 g ai/ha, scale 0-100) | Plant response rating, Oilseed Rape (oilseed rape; 250 g ai/ha, scale 0-100)
90: Plant response rating, Chickweed (chickweed; [7])
100: Plant response rating, Lambsquarters (lambsquarters; 62 g ai/ha, scale 0-100) | Plant response rating, Lambsquarters (lambsquarters; 125 g ai/ha, scale 0-100) | Plant response rating, Lambsquarters (lambsquarters; 250 g ai/ha, scale 0-100) | Plant response rating, Pigweed (pigweed [2]; 125 g ai/ha, scale 0-100) | Plant response rating, Pigweed (pigweed [2]; 250 g ai/ha, scale 0-100) | Plant response rating, Speedwell (speedwell; 125 g ai/ha, scale 0-100) | Plant response rating, Speedwell (speedwell; 250 g ai/ha, scale 0-100) | Plant response rating, Chickweed (chickweed; [8]) | Plant response rating, Pigweed (pigweed [4]; 31 g ai/ha, scale 0-100) | Plant response rating, Pigweed (pigweed [4]; [6]) | Plant response rating, Pigweed (pigweed [4]; [7]) | Plant response rating, Pigweed (pigweed [4]; [8]) | Plant response rating, Radish, Wild (wild radish; [6]) | Plant response rating, Radish, Wild (wild radish; [7]) | Plant response rating, Radish, Wild (wild radish; [8])
75: Plant response rating, Pigweed (pigweed [2]; [5]) | Plant response rating, Radish, Wild (wild radish; 31 g ai/ha, scale 0-100)
35: Plant response rating, Blackgrass (blackgrass [1]; 125 g ai/ha, scale 0-100) | Plant response rating, Blackgrass (blackgrass [3]; 250 g ai/ha) | Plant response rating, Oat, Wild (wild oat; [8])
25: Plant response rating, Blackgrass (blackgrass [3]; 62 g ai/ha) | Plant response rating, Canarygrass (canarygrass; [7]) | Plant response rating, Canarygrass (canarygrass; [8]) | Plant response rating, Oat, Wild (wild oat; [6]) | Plant response rating, Oat, Wild (wild oat; [7])
65: Plant response rating, Blackgrass (blackgrass [1]; 250 g ai/ha, scale 0-100)
0: Plant response rating, Blackgrass (blackgrass [1]; [5]) | Plant response rating, Ryegrass, Italian (Italian ryegrass; [5]) | Plant response rating, Ryegrass, Italian (Italian ryegrass; 125 g ai/ha, scale 0-100) | Plant response rating, Oilseed Rape (oilseed rape; [5]) | Plant response rating, Oilseed Rape (oilseed rape; 62 g ai/ha, scale 0-100) | Plant response rating, Speedwell (speedwell; [5])
20: Plant response rating, Blackgrass (blackgrass [3]; 31 g ai/ha) | Plant response rating, Canarygrass (canarygrass; 31 g ai/ha, scale 0-100) | Plant response rating, Canarygrass (canarygrass; [6]) | Plant response rating, Oat, Wild (wild oat; 31 g ai/ha, scale 0-100)
